This passage reports relative viability results from the supplement of paper PMC10307832.

Holding throughout (assay): relative viability (nuclei count vs DMSO), 5 days (fraction); higher = more cells survive
Compound in the experiment “Lapatinib + OSI-027”: CS(=O)(=O)CCNCc1ccc(-c2ccc3ncnc(Nc4ccc(OCc5cccc(F)c5)c(Cl)c4)c3c2)o1 [Lapatinib] + COc1cccc2cc(-c3nc([C@H]4CC[C@H](C(=O)O)CC4)n4ncnc(N)c34)[nH]c12 [OSI-027] (partner 0.5 µM)
The gist of the method: (§1)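 Five library-drug doses in √10 steps were combined with a fixed anchor-drug dose, or a single drug was given alone, by pin tool to lung cancer cell lines in 1536-well plates the day after seeding. Nuclei were stained and counted after 5 days. Relative viability is the nuclei count in treated wells over that in vehicle wells, taken as the median of duplicate plates.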

Compound in the experiment “Lapatinib + Luminespib”: CS(=O)(=O)CCNCc1ccc(-c2ccc3ncnc(Nc4ccc(OCc5cccc(F)c5)c(Cl)c4)c3c2)o1 [Lapatinib] + CCNC(=O)c1noc(-c2cc(C(C)C)c(O)cc2O)c1-c1ccc(CN2CCOCC2)cc1 [Luminespib] (partner 0.01 µM)
In a few lines:
as §1

Compound in the experiment “Wnt-C59 + Bortezomib”: CC1=NC=CC(=C1)C2=CC=C(C=C2)CC(=O)NC3=CC=C(C=C3)C4=CN=CC=C4 [Wnt-C59] + CC(C)C[C@H](NC(=O)[C@H](Cc1ccccc1)NC(=O)c1cnccn1)B(O)O [Bortezomib] (partner 0.002 µM)
The gist of the method:
as §1

Compound in the experiment “Lapatinib + Olaparib”: CS(=O)(=O)CCNCc1ccc(-c2ccc3ncnc(Nc4ccc(OCc5cccc(F)c5)c(Cl)c4)c3c2)o1 [Lapatinib] + O=C(c1cc(Cc2n[nH]c(=O)c3ccccc23)ccc1F)N1CCN(C(=O)C2CC2)CC1 [Olaparib] (partner 8 µM)
In a few lines:
as §1

Turning to UMC-11, the relative viability in the experiment with Lapatinib + OSI-027 (first compound 0.02 µM) is 0.461; in the experiment with Lapatinib + OSI-027 (first compound 0.06325 µM), 0.427; with Lapatinib + OSI-027 (first compound 0.2 µM), 0.582; with Lapatinib + OSI-027 (first compound 0.6325 µM), 0.464; with Lapatinib + OSI-027 (first compound 2 µM), 0.465; in the experiment with Lapatinib + Luminespib (first compound 0.02 µM) it was 0.887. In addition, the relative viability was 0.957 with Lapatinib + Luminespib (first compound 0.06325 µM); 0.976 in the experiment with Lapatinib + Luminespib (first compound 0.2 µM); 0.901 with Lapatinib + Luminespib (first compound 0.6325 µM); 1.02 with Lapatinib + Luminespib (first compound 2 µM); 0.715 with Wnt-C59 + Bortezomib (first compound 0.001 µM); 0.616 with Wnt-C59 + Bortezomib (first compound 0.01 µM). The relative viability was determined as 0.75 with Wnt-C59 + Bortezomib (first compound 0.03162 µM); 0.728 with Wnt-C59 + Bortezomib (first compound 0.1 µM); 0.299 with Lapatinib + Olaparib (first compound 0.02 µM); 0.342 with Lapatinib + Olaparib (first compound 0.06325 µM); 0.347 with Lapatinib + Olaparib (first compound 0.2 µM); 0.376 in the experiment with Lapatinib + Olaparib (first compound 0.6325 µM). Further, in the experiment with Lapatinib + Olaparib (first compound 2 µM), the relative viability was 0.327.
